Reference: US12673052B2, “Combinations for the treatment of cancer” (Exelixis, Inc., priority 2020, dated 2026)
Where two headings read alike, the source gives them in different places.

What was measured:
bacterial = assay: In vitro bacterial genotoxicity bioassay; assay type: cell-based
Method: The nonclinical toxicity of Compound 1 was characterized in dose range-finding 7-day and definitive 28-day repeat-dose studies in rats and dogs, and in in vitro bacterial and mammalian genotoxicity bioassays. Compound 1 was also evaluated in definitive neurobehavioral, respiratory and cardiovascular safety pharmacology studies.
Compound 1 was negative in in vitro bacterial and mammalian cell genotoxicity bioassays.

MDA-MB-231 = assay: Tumor growth inhibition in xenograft model; assay type: in vivo, NSG mice
Method: Three human tumor cell lines, NCI-H441, MDA-MB-231, and SNU-5, were selected for use in tumor xenograft studies using athymic nude, NSG and CB.17 SCID mice, respectively. Pharmacodynamic modulation of MET phosphorylation was also measured in the NCI-H441 and SNU-5 xenografts. Tumor-bearing mice were orally dosed once-daily for 14 days (qd×14), and the tumors were resected and processed for MET phosphorylation analysis by Western blot. […]

[1] = Phase 1 first-in-human Study Compound 1-001 (NCT03845166): plasma pharmacokinetics; assay type: in vivo; details: for Cmax / AUC(0-t) / Tmax / half-life / Tmax at 28 days / half-life at 28 days: human, plasma, oral; for AUC(0-t): read-out: AUC0-24
From the text: The maximum tolerated dose (MTD) and/or recommended dose (RD) of Compound 1 single-agent therapy and ICI combination therapy will be determined in a Dose-Escalation Stage. The preliminary efficacy of Compound 1 as single agent and as ICI combination therapy will be determined in a Cohort-Expansion Stage with tumor-specific expansion cohorts. As of 14 Dec. 2020, dose escalation of Compound 1 as single agent and in combination therapy with atezolizumab was ongoing: 19 subjects were enrolled in single agent cohorts across six dose levels (PIB: 10, 20 mg; Tablet: 20, 40, 80, 140 mg); three subjects were enrolled in combination therapy with atezolizumab at one dose level (Compound 1 40 mg po qd plus atezolizumab 1200 mg IV q3w). As of 14 Dec. […] The majority of reported adverse events (AEs) were of low-grade severity (Grade 1-2) with five subjects having experienced treatment-related Grade 3 events.
As of 14 Dec. 2020, preliminary Compound 1 clinical PK data are available from 17 subjects in the single agent Dose-Escalation Stage of Study Compound 1-001 (n=3 for 10 mg liquid formulation [PIB]; n=4 for 20 mg liquid formulation [PIB]; n=3 for 20 mg tablet; n =4 for 40 mg tablet; n=3 for 80 mg tablet). In addition, PK of Compound 1 was evaluated when given in the combination with atezolizumab. PK data from a total of 3 subjects enrolled in the Combination Cohort 1 (40 mg Compound 1 qd+1200 mg atezolizumab q3w) are available. A summary of all available PK parameters estimated by non-compartmental approach using individual plasma concentration-time data from a single agent Compound 1 is presented in Table 1. Mean (standard deviation [SD]) plasma Compound 1 concentration-time profiles following a single agent PIB or tablet formulation are illustrated in FIG. 8.
• Blood samples to assess the PK of Compound 1 and its potential metabolites will be obtained during the DLT Evaluation Period: • On the date of first dose of study treatment (prior to study treatment administration) at hourly intervals up to 8 hours postdose on W1D1 and W4D7 (Day 28) • Predose on W1D2 • Predose and 2 hours postdose on W2D1, W3D1, and W4D1 • During the Washout Period on W5D1, W5D2, W5D3, and W5D5 (W5D2, W5D3, and W5D5 PK samples are not required for biomarker cohorts.) • Blood samples for PK analysis will be obtained after the DLT Evaluation and Washout Periods • Predose and 2 hours postdose on W6D1, W9D1, and W13D1.

MER = MER (Homo sapiens, UniProt Q12866); assay: RTK autophosphorylation ELISA, 293A cells transfected with receptor expression vector; assay type: cell-based; set-up: expressed in transfected cells; host or cells: 293A; details: no ligand, read-out: Cellular IC50
Method: The activity of Compound 1 was evaluated in cell-based assays that assessed the mechanistic effects of the compound in tumor and normal cells. Consistent with the biochemical data, Compound 1 is a potent inhibitor of cellular RTKs as assessed by analysis of receptor autophosphorylation as measured by enzyme-linked immunosorbent assay. Assays were performed using cell lines (PC-3, HUVEC, and A-172) stimulated with ligands to their respective receptors to induce autophosphorylation (MET, VEGFR2, and AXL) or a cell line (293A) transfected with an expression vector encoding the receptor of interest (MER). Inhibition of endogenous phosphorylated MET by Compound 1 in Hs 746T gastric carcinoma cells was also investigated due to the presence of the skip-splice mutation of exon 14 in the MET gene. This MET exon 14 alteration leads to increased MET stability and oncogenic activation, including constitutive MET phosphorylation. Also this mutation is known to occur in 3% of lung adenocarcinoma patients and to be sensitive to MET-targeted therapies (Frampton et al 2015).

[2] = 10 mg PIB, Steady-State (Day 28), mean ± SD
[3] = 20 mg PIB, Steady-State (Day 28), N = 3, mean ± SD
[4] = 20 mg Tablet, Steady-State (Day 28), mean ± SD
[5] = 40 mg Tablet, Steady-State (Day 28), mean ± SD
[6] = 80 mg Tablet, Steady-State (Day 28), mean ± SD
[7] = 10 mg, 10 mg PIB, First Dose (Day 1), mean ± SD
[8] = 10 mg, 10 mg PIB, Steady-State (Day 28), mean ± SD
[9] = 20 mg, 20 mg PIB, First Dose (Day 1), mean ± SD
[10] = 20 mg, 20 mg PIB, Steady-State (Day 28), N = 3, mean ± SD
[11] = 20 mg, 20 mg Tablet, First Dose (Day 1), mean ± SD
[12] = 20 mg, 20 mg Tablet, Steady-State (Day 28), mean ± SD
[13] = 40 mg, 40 mg Tablet, First Dose (Day 1), mean ± SD
[14] = 40 mg, 40 mg Tablet, Steady-State (Day 28), mean ± SD
[15] = 80 mg, 80 mg Tablet, First Dose (Day 1), mean ± SD
[16] = 80 mg, 80 mg Tablet, Steady-State (Day 28), mean ± SD

Chain of MER (Q12866 21-999): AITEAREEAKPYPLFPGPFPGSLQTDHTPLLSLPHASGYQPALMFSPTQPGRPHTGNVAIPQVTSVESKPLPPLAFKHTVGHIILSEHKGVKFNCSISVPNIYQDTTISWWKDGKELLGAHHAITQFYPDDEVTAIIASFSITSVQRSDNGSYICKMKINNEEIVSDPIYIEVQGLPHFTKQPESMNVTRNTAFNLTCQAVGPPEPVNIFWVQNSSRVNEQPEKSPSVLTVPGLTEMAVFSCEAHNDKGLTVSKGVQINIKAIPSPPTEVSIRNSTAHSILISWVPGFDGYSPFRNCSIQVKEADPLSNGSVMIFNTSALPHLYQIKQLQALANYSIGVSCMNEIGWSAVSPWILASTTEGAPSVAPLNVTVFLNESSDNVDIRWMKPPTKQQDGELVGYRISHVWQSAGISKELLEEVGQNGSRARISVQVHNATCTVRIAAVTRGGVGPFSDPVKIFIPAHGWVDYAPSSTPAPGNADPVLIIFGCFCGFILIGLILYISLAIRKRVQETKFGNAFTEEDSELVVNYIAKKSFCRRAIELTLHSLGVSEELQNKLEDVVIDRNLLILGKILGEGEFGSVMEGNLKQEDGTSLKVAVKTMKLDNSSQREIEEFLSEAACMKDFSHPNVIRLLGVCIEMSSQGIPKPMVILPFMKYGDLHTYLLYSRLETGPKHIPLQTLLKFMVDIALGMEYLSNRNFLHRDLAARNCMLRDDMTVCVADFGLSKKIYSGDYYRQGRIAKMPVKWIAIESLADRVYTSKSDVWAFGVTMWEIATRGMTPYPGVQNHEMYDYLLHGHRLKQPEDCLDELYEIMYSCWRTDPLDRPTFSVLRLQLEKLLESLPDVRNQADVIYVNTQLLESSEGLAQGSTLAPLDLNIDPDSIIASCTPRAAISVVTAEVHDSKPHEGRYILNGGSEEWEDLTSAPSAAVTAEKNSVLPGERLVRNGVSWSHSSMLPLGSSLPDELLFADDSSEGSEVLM

CNC(=O)c1cc2c(Oc3ccc(NC(=O)C4(C(=O)Nc5ccc(F)cc5)CC4)cc3)ccnc2cc1OC [Compound 1, 1-N′-(4-Fluorophenvl)-1-N-[4-[7-methoxy-6-(methylcarbamovl)quinolin-4-yl]oxyphenyl]cyclopropane-1,1-dicarboxamide]
genotoxicity (bacterial): negative | TGI (%) (MDA-MB-231; 3 mg/kg qd × 14 oral, p-value 0.0001): 73.6% | TGI (%) (MDA-MB-231; 10 mg/kg qd × 14 oral, p-value <0.0001): 78.6% | AR AUC0-24 (accumulation ratio) [1, 2]: 1.92 ± 0.593 | AR Cmax (accumulation ratio) [1, 2]: 2.76 ± 0.609 | AR AUC0-24 (accumulation ratio) [1, 3]: 3.61 ± 4.09 | AR Cmax (accumulation ratio) [1, 3]: 4.09 ± 5.40 | AR AUC0-24 (accumulation ratio) [1, 4]: 1.33 ± 0.136 | AR Cmax (accumulation ratio) [1, 4]: 1.30 ± 0.374 | mean exposure of Compound 1 (Cmax and AUC0-24) in combination with atezolizumab relative to single agent ([1]; 40 mg Compound 1 qd + 1200 mg atezolizumab q3w, steady-state, lower in combination): approximately 2 fold | AR AUC0-24 (accumulation ratio) [1, 5]: 1.46 ± 0.286 | AR Cmax (accumulation ratio) [1, 5]: 1.27 ± 0.0979 | AR AUC0-24 (accumulation ratio) [1, 6]: 1.88 ± 0.947 | AR Cmax (accumulation ratio) [1, 6]: 1.67 ± 0.636 | accumulation at steady state ([1]; 20-mg tablet): < 2 fold | increase of mean exposure (AUC0-24) with dose ([1]; PIB 10 mg to 20 mg, Day 1): approximately dose proportionally | Mean PK exposure (Cmax and AUC0-24) of 20 mg tablet relative to 20 mg PIB ([1]; first dose Day 1, tablet higher): approximately 3.7 fold | increase of exposure with dose ([1]; first dose, 20 to 80 mg tablets, single agent): approximately dose proportional | Cmax [1, 7]: 35.7 ± 10.8 ng/mL | AUC(0-t) [1, 7]: 510 ± 193 ng·h/mL | Tmax ([1]; 10 mg, 10 mg PIB, First Dose (Day 1), median (min, max), read-out: Tmax): 1 h | Cmax [1, 8]: 95.2 ± 17.8 ng/mL | AUC(0-t) [1, 8]: 971 ± 398 ng·h/mL | half-life ([1]; 10 mg, 10 mg PIB, Steady-State (Day 28), mean ± SD, read-out: t1/2 (terminal phase half-life) (converted)): 19.9 ± 1.3 h | Tmax at 28 days ([1]; 10 mg, 10 mg PIB, Steady-State (Day 28), median (min, max)): 2 h | Cmax [1, 9]: 91.9 ± 13.4 ng/mL | AUC(0-t) [1, 9]: 1000 ± 338 ng·h/mL | Tmax ([1]; 20 mg, 20 mg PIB, First Dose (Day 1), median (min, max), read-out: Tmax): 2 h | Cmax [1, 10]: 330 ± 409 ng/mL | AUC(0-t) [1, 10]: 3270 ± 4010 ng·h/mL | half-life ([1]; 20 mg, 20 mg PIB, Steady-State (Day 28), N = 3, mean ± SD, read-out: t1/2 (terminal phase half-life) (converted)): 21 ± 5.7 h | Tmax at 28 days ([1]; 20 mg, 20 mg PIB, Steady-State (Day 28), N = 3, median (min, max)): 2 h | Cmax [1, 11]: 342 ± 225 ng/mL | AUC(0-t) [1, 11]: 3680 ± 1550 ng·h/mL | Tmax ([1]; 20 mg, 20 mg Tablet, First Dose (Day 1), median (min, max), read-out: Tmax): 6 h | Cmax [1, 12]: 422 ± 241 ng/mL | AUC(0-t) [1, 12]: 5030 ± 2560 ng·h/mL | half-life ([1]; 20 mg, 20 mg Tablet, Steady-State (Day 28), mean ± SD, read-out: t1/2 (terminal phase half-life) (converted)): 27.8 ± 4.74 h | Tmax ([1]; 20 mg, 20 mg Tablet, Steady-State (Day 28), median (min, max), read-out: Tmax): 1 h | half-life at 28 days ([1]; 20 mg, PIB 10 and 20 mg, steady-state Day 28, read-out: mean terminal half-life (t1/2) (converted)): ~20 h | Cmax [1, 13]: 521 ± 202 ng/mL | AUC(0-t) [1, 13]: 6350 ± 1540 ng·h/mL | Tmax ([1]; 40 mg, 40 mg Tablet, First Dose (Day 1), median (min, max), read-out: Tmax): 5 h | Cmax [1, 14]: 656 ± 242 ng/mL | AUC(0-t) [1, 14]: 8190 ± 1560 ng·h/mL | half-life ([1]; 40 mg, 40 mg Tablet, Steady-State (Day 28), mean ± SD, read-out: t1/2 (terminal phase half-life) (converted)): 24.2 ± 5.01 h | Tmax ([1]; 40 mg, 40 mg Tablet, Steady-State (Day 28), median (min, max), read-out: Tmax): 3 h | Cmax [1, 15]: 935 ± 348 ng/mL | AUC(0-t) [1, 15]: 11000 ± 6290 ng·h/mL | Tmax ([1]; 80 mg, 80 mg Tablet, First Dose (Day 1), median (min, max), read-out: Tmax): 2 h | Cmax [1, 16]: 1440 ± 454 ng/mL | AUC(0-t) [1, 16]: 16900 ± 3120 ng·h/mL | half-life ([1]; 80 mg, 80 mg Tablet, Steady-State (Day 28), mean ± SD, read-out: t1/2 (terminal phase half-life) (converted)): 19.3 ± 3.35 h | Tmax ([1]; 80 mg, 80 mg Tablet, Steady-State (Day 28), median (min, max), read-out: Tmax): 3 h | Tmax ([1]; first dose, tablets 20 to 80 mg, read-out: median Tmax): 2 to 6 h | half-life ([1]; tablet (as of April 2021), read-out: terminal half-life at steady state): 24 to 28 h | half-life at 28 days ([1]; tablets, steady-state, read-out: mean t1/2): 19 to 28 h | exposure (AUC0-24) of 20-mg tablet higher than 20 mg PIB ([1]; steady-state Day 28): approximately 50% | accumulation in exposure (Cmax and AUC0-24) at steady-state ([1]; tablets, after 28 days of daily dosing): < 2 fold | mean apparent CL/F ([1]; tablets, steady-state): approximately 5 L/hr | IC50 (MER): 7.1 nM
